From patent publication US8461146B2, “Pharmaceutical composition for the treatment of premature ejaculation” (priority 2008, dated 2013)
“Also recorded” adds a separate entry of the source.

How the values were obtained:
[1] = test system: sexually active male Crl:CD (SD) rats; assay: Pharmacological effect evaluation (rats): copulatory behavior test, ejaculation latency time; type: in vivo; conditions: single drugs and double-drug combinations, C 2.70, S 6.02, F 2.41 mg/kg; for Ejaculation latency time, mean ± S.E.M.: single oral, test 3 h after dosing; for Increasing rate of ELT: vs negative control
Method: According to the method of Brain Res Brain Res Protoc, 1997, (1):203-9, this experiment was executed by employing male and female Crl:CD (SD) rats above 20 weeks old as test animals.
The female rats were anesthetized by the intraperitoneal injection of combination of ketamine 75 mg/kg and xylazine 25 mg/kg. After performing laparotomy, the ovaries were removed and peritoneal wall was closed with sutures. 2 ml of 10% ampicillin was injected intraperitoneally and the female rats had recovery period of 7 days. Ovariectomied females were brought into artificial estrus by subcutaneous injection of 20 μg/rat of estradiol benzoate, dissolved in 0.2 ml of sesame oil, about 52 hours before the administration of a test compound, followed by s.c injection of 1 mg/rat of progestrerone, dissolved in 0.2 ml of sesame oil, about 4 hours before the administration of a test compound.
Screening test was performed in an observation cage (60×40×30 cm) with plexiglass front. Before screening test, the male rats were allowed to adapt to the observation cage for 10 minutes and then the female rats with artificial estrus were brought into the cage. If male rats had ejaculated within 30 minutes, they were regarded as sexually active ones. Selected male rats went through copulatory experience for 5 times at 3 days intervals.
The experienced males were divided into 15 groups of about 10 animals so that the mean ejaculation latency time (ELT) of groups are similar. Test compound was single orally administered.
Group 1 as a negative control was administered with 0.5% methylcellulose 1500 (Sigma Co., hereinafter as “MC 1500”). […] Groups 5˜7 were administered with double-drug combinations. Groups 8˜15 were administered with triple-drug combinations having various doses. Detailed doses are represented in Table 2 below.
After 2 hours and 50 minutes from the administration of test compounds, the male rats were allowed to adapt to the observation cage for 10 minutes. Then copulatory behavior test was initiated with the introduction of female rats with artificial estrus into the observation cage. The ejaculation latency time (ELT) as the time from the first intromission until the ejaculation was evaluated.

[2] = test system: Patients with premature ejaculation of 60 seconds or less; assay: Clinical study: treatment effect in patients with premature ejaculation; type: in vivo, human; conditions: sertraline 50.0 mg, fluoxetine 20.0 mg, triple C 7.5 + S 11.3 + F 5.9 mg, 3 weeks; for Patient no. with ELT of 10 min or over: of 20 patients per group, daily dose clomipramine 22.4 mg, 3 hours before intercourse; for Treatment effect: share of 20 patients with ELT 10 min or more, clomipramine 22.4 mg
Method: (§1) Patients with premature ejaculation of 60 seconds or less were divided into 4 groups of twenty people. […] A dose was taken 3 hours before the sexual intercourse begins, and the administration period was for 3 weeks. The effect of the administration of the drugs to the patients examined through interviews with the patients. A drug was determined as effective when the patient's ejaculation latency time had been 10 minutes or more.

[3] = Side effect evaluation, clinical study (sedation); type: in vivo, human; conditions: clomipramine 22.4 mg, triple C 7.5 + S 11.3 + F 5.9 mg
Method: as §1, with “patients.” for “patients. A drug was determined as effective when the patient's ejaculation latency time had been 10 minutes or more.”
A side effect incidence rate of sedation was investigated among patients who took each drug in Example 4.

[4] = test system: premature ejaculation patients; conditions: clomipramine 25 mg or 50 mg per day; sertraline 50 mg to 200 mg per day; fluoxetine 40 mg; cited from earlier work
[5] = clomipramine 50 mg; sertraline 50 mg to 200 mg per day; fluoxetine 40 mg and another report; cited from earlier work
[6] = rat, in vivo, po
Method: Rats were supplemented with about 200 μl of heparinized saline (20 IU/ml) at each sampling times.
The maximum plasma concentration (Cmax) and the time to reach Cmax (Tmax) were obtained from the plasma concentration-time curve. The area under the plasma concentration-time curve (AUC) was calculated by using the trapezoidal rule.

[7] = Side effect evaluation, clinical study (nausea); type: in vivo, human; conditions: sertraline 50.0 mg, triple C 7.5 + S 11.3 + F 5.9 mg
Method: as §1, with “patients.” for “patients. A drug was determined as effective when the patient's ejaculation latency time had been 10 minutes or more.”
A side effect incidence rate of nausea was investigated among patients who took each drug in Example 4.

SMILES	Ejaculation latency time, mean ± S.E.M. [1]	Increasing rate of ELT [1]	Patient no. with ELT of 10 min or over [2]	Treatment effect [2]	Incidence rate of sedation ([3]; 20 patients)	No. of sedation ([3]; of 20 patients)	Ejaculation delay effect (literature) [4]	Side effects (literature) [5]	Cmax and AUC after triple-drug combination compared with single drug administration (in words) [6]	Treatment effect ([2]; listed as sertraline)	Incidence rate of nausea ([7]; 20 patients)	No. of nausea ([7]; of 20 patients)
CN(C)CCCN1c2ccccc2CCc2ccc(Cl)cc21 [Clomipramine, clomipramine]	177.2 ± 47.6 s	−14.3%	15	75%	70%	14	ejaculation latency effect; also recorded: ejaculation was delayed	constipation, dry-mouth, nausea, drowsiness, headache and dizziness	–	–	–	–
CNCCC(Oc1ccc(C(F)(F)F)cc1)c1ccccc1 (centres unmarked) [Fluoxetine, fluoxetine]	141.3 ± 51.2 s	−31.7%	0	the curative effect did not show up	–	–	the ejaculation delay effect was weak	drowsiness, dry-mouth, nausea, vomiting; also recorded: nausea, headache, and insomnia	increases in Cmax and AUC	–	–	–
CN[C@H]1CC[C@@H](c2ccc(Cl)c(Cl)c2)c2ccccc21 [Sertraline, sertraline]	–	–	8	40%	–	–	the ejaculation was delayed	nausea, vomiting	only AUC increased significantly	about 40%	90%	18
